Data published in patent publication US20240417410A1, “TRICYCLIC COMPOUNDS FOR THE TREATMENT OF CANCER” (Hoffmann-La Roche Inc., priority 2023, published 2024).

Experiments:
[1] = test system: phosphorylation of ERK, KRAS G12D in AGS cells; experiment: pERK inhibition assay; type: cell-based; conditions: Homo sapiens, AGS, 4 h
Outline: (§1)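 Phospho-ERK quantified by in-cell ELISA with TMB read-out at OD450 following 4 h compound exposure (final 0.5% DMSO). Cell lines were SW620 (KRAS G12V), AGS (G12D) and NCI-H358 (G12C), grown in RPMI-1640 with 10% FBS. A 4-parameter sigmoidal model gave the IC50.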

[2] = test system: phosphorylation of ERK, KRAS G12V in SW620; experiment: pERK inhibition assay; type: cell-based; conditions: Homo sapiens, SW-620, 4 h, SW620 cells
Outline: as §1

[3] = test system: phosphorylation of ERK, KRAS G12C in NCI-H358 cells; experiment: pERK inhibition assay; type: cell-based; conditions: Homo sapiens, NCI-H358, 4 h
Outline: as §1

[4] = biological target: KRAS G12C-BRAF complex (Homo sapiens (Human), UniProt P01116+P62937, G12C); experiment: KRAS-BRAF with CYPA (500 nM) interaction assay (TR-FRET, Example 136); type: biochemical; conditions: KRAS G12C-BRAF disruption
[5] = test system: AGS cells (KRAS G12D); experiment: Cell viability assay (Cell Counting Kit-8, 3-day); type: cell-based, human; conditions: Homo sapiens, 72 h, 72 hrs incubation
Outline: (§2)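 IC50 derived by 4-parameter sigmoidal fit of CCK-8 signal (OD450−OD650, 2 h development) after 72 h compound exposure in 0.5% DMSO. Seeding density was 5,000 cells/well for NCI-H358 and 2,000 cells/well for AGS and SW620, plated overnight before dosing.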

[6] = test system: NCI-H358 cells (KRAS G12C); experiment: Cell viability assay (Cell Counting Kit-8, 3-day); type: cell-based, human; conditions: Homo sapiens, NCI-H358, 72 h, NCI-H358, 72 hrs incubation
Outline: as §2

[7] = test system: SW620 cells (KRAS G12V); experiment: Cell viability assay (Cell Counting Kit-8, 3-day); type: cell-based, human; conditions: Homo sapiens, SW-620; SW620, 72 hrs incubation
Outline: as §2

Sequence of KRAS G12C-BRAF complex (P01116-2 other isoform, or with tags, fused parts or gaps G12C): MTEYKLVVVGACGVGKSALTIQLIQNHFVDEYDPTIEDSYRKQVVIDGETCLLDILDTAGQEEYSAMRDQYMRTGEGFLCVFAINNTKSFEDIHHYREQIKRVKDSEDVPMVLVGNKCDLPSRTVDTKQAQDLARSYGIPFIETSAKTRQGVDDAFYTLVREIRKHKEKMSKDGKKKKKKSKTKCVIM
Sequence of KRAS G12C-BRAF complex (P62937 whole entry): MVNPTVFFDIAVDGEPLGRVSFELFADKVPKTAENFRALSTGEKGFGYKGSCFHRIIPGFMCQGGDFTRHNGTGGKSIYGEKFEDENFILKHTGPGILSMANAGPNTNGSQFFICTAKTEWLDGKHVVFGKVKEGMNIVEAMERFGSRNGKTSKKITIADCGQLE

CO[C@@H](C)c1ncc(N2CCN3CCOC[C@@H]3C2)cc1-c1c2c3cc(cc4c3n1CCC4)-c1csc(n1)C[C@H](NC(=O)[C@H]1C[C@@H]1C)C(=O)N1CCC[C@H](N1)C(=O)OCC(C)(C)C2 (atropisomer, axis not shown; (M)) [Example 25, (1S,2S)-N-[(7S,13S)-(20M)-20-[5-[(9αS)-3,4,6,7,9,9a-hexahydro-1H-pyrazino[2,1-c][1,4]oxazin-8-yl]-2-[(1S)-1-methoxyethyl]-3-pyridyl]-17,17-dimethyl-8,14-dioxo-15-oxa-4-thia-9,21,30,31-tetrazahexacyclo[23.3.1.1^2,5.1^9,13.0^19,27.0^21,26]hentriaconta-1 (28),2,5 (31),19,25 (29),26-hexaen-7-yl]-2-methyl-cyclopropanecarboxamide]
IC50 [1]: 11.3 nM
IC50 [2]: 0.8 nM
IC50 [3]: 1 nM
IC50 [4]: 32.6 nM
IC50 [5]: 32.6 nM
IC50 [6]: 6.7 nM
IC50 [7]: 1.8 nM

CO[C@@H](C)c1ncc(N2CCN(C)CC2)cc1-c1c2c3cc(cc4c3n1CCC4)-c1csc(n1)C[C@H](NC(=O)[C@H]1C[C@@H]1c1ccccn1)C(=O)N1CCC[C@H](N1)C(=O)OCC(C)(C)C2 (atropisomer, axis not shown; (M)) [Example 30, (1S,2S)-N-[(7S,13S)-(20M)-20-[2-[(1S)-1-methoxyethyl]-5-(4-methylpiperazin-1-yl)-3-pyridyl]-17,17-dimethyl-8,14-dioxo-15-oxa-4-thia-9,21,30,31-tetrazahexacyclo[23.3.1.1^2,5.1^9,13.0^19,27.0^21,26]hentriaconta-1 (28),2,5 (31),19,25 (29),26-hexaen-7-yl]-2-(2-pyridyl)cyclopropanecarboxamide]
IC50 [1]: 7.3 nM
IC50 [2]: < 0.6 nM
IC50 [3]: 1.3 nM
IC50 [4]: 17.2 nM
IC50 [5]: 23.4 nM
IC50 [6]: 4.9 nM
IC50 [7]: 1.3 nM

CO[C@@H](C)c1ncc(N2CCN(C)CC2)cc1-c1c2c3cc(cc4c3n1CCC4)-c1csc(n1)C[C@H](NC(=O)[C@H]1C[C@H]1C)C(=O)N1CCC[C@H](N1)C(=O)OCC(C)(C)C2 (atropisomer, axis not shown; (M)) [Example 33, (1S,2R)-N-[(7S,13S)-(20M)-20-[2-[(1S)-1-methoxyethyl]-5-(4-methylpiperazin-1-yl)-3-pyridyl]-17,17-dimethyl-8,14-dioxo-15-oxa-4-thia-9,21,30,31-tetrazahexacyclo[23.3.1.1^2,5.1^9,13.0^19,27.0^21,26]hentriaconta-1 (28),2,5 (31),19,25 (29),26-hexaen-7-yl]-2-methyl-cyclopropanecarboxamide]
IC50 [1]: 23.1 nM
IC50 [2]: 2.7 nM
IC50 [3]: 8.5 nM
IC50 [4]: 19.5 nM
IC50 [5]: 100 nM
IC50 [6]: 32.3 nM
IC50 [7]: 7.4 nM

CO[C@@H](C)c1ncc(N2CCN(C)CC2)cc1-c1c2c3cc(cc4c3n1CCO4)-c1csc(n1)C[C@H](NC(=O)[C@H]1C[C@@H]1C(F)F)C(=O)N1CCC[C@H](N1)C(=O)OCC(C)(C)C2 (atropisomer, axis not shown; (M)) [Example 34, (1S,2S)-2-(difluoromethyl)-N-[(7S,13S)-(20M)-20-[2-[(1S)-1-methoxyethyl]-5-(4-methylpiperazin-1-yl)-3-pyridyl]-17,17-dimethyl-8,14-dioxo-15,24-dioxa-4-thia-9,21,30,31-tetrazahexacyclo[23.3.1.1^2,5.1^9,13.0^19,27.0^21,26]hentriaconta-1 (28),2,5 (31), 19,25 (29),26-hexaen-7-yl]cyclopropanecarboxamide]
IC50 [1]: 4.6 nM
IC50 [2]: < 0.6 nM
IC50 [3]: < 0.6 nM
IC50 [4]: 31.8 nM
IC50 [5]: 12.4 nM
IC50 [6]: 4.7 nM
IC50 [7]: 1.1 nM

CO[C@@H](C)c1ncc(N2CCN(C)CC2)cc1-c1c2c3cc(cc4c3n1CCO4)-c1csc(n1)C[C@H](NC(=O)[C@H]1[C@@H]3COC[C@@H]31)C(=O)N1CCC[C@H](N1)C(=O)OCC(C)(C)C2 (atropisomer, axis not shown; (M)) [Example 35, (1S,5R,6r)-N-[(7S,13S)-(20M)-20-[2-[(1S)-1-methoxyethyl]-5-(4-methylpiperazin-1-yl)-3-pyridyl]-17,17-dimethyl-8,14-dioxo-15,24-dioxa-4-thia-9,21,30,31-tetrazahexacyclo[23.3.1.1^2,5.1^9,13.0^19,27.0^21,26]hentriaconta-1 (28),2,5 (31), 19,25 (29),26-hexaen-7-yl]-3-oxabicyclo[3.1.0]hexane-6-carboxamide]
IC50 [1]: 4.7 nM
IC50 [2]: < 0.6 nM
IC50 [3]: 1 nM
IC50 [4]: 14.5 nM
IC50 [5]: 13 nM
IC50 [6]: 4.3 nM
IC50 [7]: 1 nM

CO[C@@H](C)c1ncc(N2CCOCC2)cc1-c1c2c3cc(cc4c3n1CCC4)-c1csc(n1)C[C@H](NC(=O)[C@@H]1C[C@H]1C1CC1)C(=O)N1CCC[C@H](N1)C(=O)OCC(C)(C)C2 (atropisomer, axis not shown; (M)) [Example 37, (1R,2S)-2-cyclopropyl-N-[(7S,13S)-(20M)-20-[2-[(1S)-1-methoxyethyl]-5-morpholino-3-pyridyl]-17,17-dimethyl-8,14-dioxo-15-oxa-4-thia-9,21,30,31-tetrazahexacyclo[23.3.1.1^2,5.1^9,13.0^19,27.0^21,26]hentriaconta-1 (29),2,5 (31),19,25,27-hexaen-7-yl]cyclopropanecarboxamide]
IC50 [1]: 9.1 nM
IC50 [2]: 0.6 nM
IC50 [3]: 0.9 nM
IC50 [4]: 20.5 nM
IC50 [5]: 28.3 nM
IC50 [6]: 7.8 nM
IC50 [7]: 2.1 nM

CO[C@@H](C)c1ncc(N2CCN3CCOC[C@@H]3C2)cc1-c1c2c3cc(cc4c3n1CCC4)-c1csc(n1)C[C@H](NC(=O)[C@H]1[C@@H]3COC[C@@H]31)C(=O)N1CCC[C@H](N1)C(=O)OCC(C)(C)C2 (atropisomer, axis not shown; (M)) [Example 40, (1S,5R,6r)-N-[(7S,13S)-(20M)-20-[5-[(9αS)-3,4,6,7,9,9a-hexahydro-1H-pyrazino[2,1-c][1,4]oxazin-8-yl]-2-[(1S)-1-methoxyethyl]-3-pyridyl]-17,17-dimethyl-8,14-dioxo-15-oxa-4-thia-9,21,30,31-tetrazahexacyclo[23.3.1.1^2,5.1^9,13.0^19,27.0^21,26]hentriaconta-1 (28),2,5 (31),19,25 (29),26-hexaen-7-yl]-3-oxabicyclo[3.1.0]hexane-6-carboxamide]
IC50 [1]: 5.6 nM
IC50 [2]: 0.4 nM
IC50 [3]: 0.6 nM
IC50 [4]: 13 nM
IC50 [5]: 11.8 nM
IC50 [6]: 3 nM
IC50 [7]: 0.8 nM

CO[C@@H](C)c1ncc(N2CCN3CCOC[C@@H]3C2)cc1-c1c2c3cc(cc4c3n1CCC4)-c1csc(n1)C[C@H](NC(=O)[C@H]1C[C@@H]1C(F)F)C(=O)N1CCC[C@H](N1)C(=O)OCC(C)(C)C2 (atropisomer, axis not shown; (M)) [Example 41, (1S,2S)-N-[(7S,13S)-(20M)-20-[5-[(9αS)-3,4,6,7,9,9a-hexahydro-1H-pyrazino[2,1-c][1,4]oxazin-8-yl]-2-[(1S)-1-methoxyethyl]-3-pyridyl]-17,17-dimethyl-8,14-dioxo-15-oxa-4-thia-9,21,30,31-tetrazahexacyclo[23.3.1.1^2,5.1^9,13.0^19,27.0^21,26]hentriaconta-1 (28),2,5 (31),19,25 (29),26-hexaen-7-yl]-2-(difluoromethyl)cyclopropanecarboxamide]
IC50 [1]: 4.8 nM
IC50 [2]: 0.4 nM
IC50 [3]: 0.4 nM
IC50 [4]: 23.8 nM
IC50 [5]: 14 nM
IC50 [6]: 3.6 nM
IC50 [7]: 0.9 nM

CO[C@@H](C)c1ncc(N2CCN(C)CC2)cc1-c1c2c3cc(cc4c3n1CCC4)-c1csc(n1)C[C@H](NC(=O)[C@@H]1[C@@H]3COC[C@@H]31)C(=O)N1CCC[C@H](N1)C(=O)OCC(C)(C)C2 (atropisomer, axis not shown; (M)) [Example 42, (1R,5S,6s)-N-[(7S,13S)-(20M)-20-[2-[(1S)-1-methoxyethyl]-5-(4-methylpiperazin-1-yl)-3-pyridyl]-17,17-dimethyl-8,14-dioxo-15-oxa-4-thia-9,21,30,31-tetrazahexacyclo[23.3.1.1^2,5.1^9,13.0^19,27.0^21,26]hentriaconta-1 (28),2,5 (31), 19,25 (29),26-hexaen-7-yl]-3-oxabicyclo[3.1.0]hexane-6-carboxamide]
IC50 [1]: 8.1 nM
IC50 [2]: 1.4 nM
IC50 [3]: 0.9 nM
IC50 [4]: 20.5 nM
IC50 [5]: 22.4 nM
IC50 [6]: 5.4 nM
IC50 [7]: 1.3 nM
